Data from US20150119825A1, “OPTIMIZING UNGUAL TREATMENT BY QUANTITATIVE AUTORADIOGRAPHY” (GALDERMA RESEARCH & DEVELOPMENT, priority 2012, published 2015).
Where “and” joins values, the source holds several entries; their conditions need not be identical. Equal values may be shown once. Entries after “also recorded” stand apart in the source; their conditions may differ. Where a name gives a salt, the structure may show the parent alone.

Columns and labels:
[1] = In vitro diffusion of [^14C]-Terbinafine at the nail bed of drilled human nails, quantitative whole body autoradiography (QWBA); assay type: in vitro ADME; settings: for diffusion of radioactivity between the holes: 2 mm and 4 mm spaced holes
Source text: Four frozen human cadaver fingertips with nails were used. Each fingernail contained two series of three holes, one set at 2 mm apart and the other set at 4 mm apart.
The samples were placed in a Transwell plate containing 3 milliLiters (mL) of culture medium. Three of the nails received an application of the radiolabeled test item during one hour; one received an application of a non-radiolabeled test item. A finite dose (5 microLiters (μL)) of formulation was applied on the nail surface. Incubation was conducted for 1 hour at 37° C., 5% CO2 and saturated hygrometry. At the end of the incubation, excess of formulation was removed from the nail surface.
Each sample was frozen onto a support using adapted QWBA procedures. Sections were then taken through each fingernail onto tape and were analyzed using QWBA methods to determine the diffusion of radioactivity at the nail bed level from each site of administration. A 3-dimensional graph of the concentration of radioactivity was then created to visualize the diffusion through the nail matrix.
In vitro diffusion of [^14C]-Terbinafine on nail beds was studied on drilled human hand nails. Four samples were used through the study and were drilled as follows: • On each sample: 3 holes of 0.6 mm diameter, with 2 mm distance between each hole and 3 holes of 0.6 mm diameter, with 4 mm distance between each hole • 3 samples were treated with 10% [^14C]-Terbinafine in amphoteric solution One sample was treated with placebo • Treatment duration: 1 hour • 5 μL of test item were applied on each nail • Incubation at 37° C., 5% CO2 and saturated hygrometry during 1 hour • At the end of the incubation period, the excess of test item was removed and the samples were stored at −80° C. before processing for autoradiography analysis.
(§1) Three of the nails received an application of the radiolabeled test item, whilst the other nail received an application of the unlabelled test item as follows: • Samples A, B and C (Treated samples): 5 μL of the formulation containing 10% [^14C]-Terbinafine were applied on the surface of each of the nail samples. • Sample D (Control sample): 5 μL of the formulation containing 10% Terbinafine were applied on the surface of the nail sample.
(§2) The culture plate containing the nail samples was placed in a culture incubator kept at 37° C., 5% CO2 and saturated hygrometry. The duration of the nail treatment was 1 hour.
At the end of the treatment period, the excess of the formulation remaining on the nail was wiped off using a dried cotton swab and five successive cotton swabs wetted with absolute ethanol. These cotton swabs were discarded. The nail samples were then stored at −80° C., and shipped frozen for analysis by autoradiography.
The samples (four human fingernails) were received deeply frozen on solid CO2 and immediately transferred to storage in a freezer set to maintain a temperature of −80° C. A supporting block was prepared to support each sample during sectioning. Specifically, a mould was filled with 2% carboxymethylcellulose solution and frozen in a mixture of dry ice and hexane. The frozen finger was fixed in a horizontal position on a cork disc using a cryo-matrix and the disc was then fixed to the carboxymethylcellulose block with a further cryo-matrix. The finger was embedded so that the nail was facing to the side and to ensure that each series of holes was as horizontal as possible (dependant on the alignment of the drilled holes). A further cryomatrix was added around each finger to provide additional support during sectioning. The frozen blocks were stored in a freezer set to maintain a temperature of −20° C. prior to and following sectioning.
Each nail was sectioned through until immediately adjacent to the uppermost hole in the series. Horizontal sections (approximately 30 μm thick) were then taken through each fingernail onto adhesive tape. […]

[2] = Radioactivity level in the culture medium (receiver chamber) at the end of the treatment period, liquid scintillation counting; assay type: in vitro ADME, human; settings: for radioactivity in culture medium, mean / radioactivity in culture medium, whole receiver chamber: 1 hour treatment; for radioactivity in culture medium, single counts: 5 μL of 10% formulation on drilled nail, 1 hour, 37° C., triplicate counts, hydrochloride; for Applied dose (%) found in culture medium: applied dose 1106175 dpm
Procedure: Each nail sample was then placed on a cell culture insert. Each insert was introduced into a receiver chamber of a 6-well culture plate. The receiver chamber was filled with 3 mL HHBSS containing antibiotics (2% penicilline-streptomycine).
as §1, §2
In order to check the specificity of the incubation system (no radioactive contamination due to leakage of applied formulation through the insert), the radioactivity level was measured in the culture medium at the end of the treatment period. Each receiver chamber medium was controlled in triplicate by liquid scintillation counting as follows: 100 μL of culture medium was directly counted by liquid scintillation counting using 10 mL of HIONIC FLUOR available from Perkin Elmer. The results presented in the table below show a very low radioactivity level in culture medium of sample A and sample C. The radioactivity level only represented 1.6% of the applied dose in sample A and 0.1% of the applied dose in sample C. These radioactivity levels were considered negligible and could not compromise the results of the study.

For `CN(C/C=C/C#CC(C)(C)C)Cc1cccc2ccccc12` [Terbinafine], the “localization of diffusion (plots of FIGS. 4, 6, 8, 10, 12, 14)” value ([1]; Nails A to C, 2 mm and 4 mm hole sets) was “particularly localized to the holes in the nail”.

In the case of `CN(C/C=C/C#CC(C)(C)C)Cc1cccc2ccccc12` [[^14C]-Terbinafine, Terbinafine hydrochloride], the “diffusion of radioactivity between the holes” value ([1]; Nail A, 1 hour) is reported as “little diffusion of radioactivity between the holes”, the “concentrations of radioactivity between the holes” value (from here on “concentrations”) ([1]; Nail A, 4 mm spacing, 1 hour) is reported as “decrease to background levels between the holes” and the “diffusion of radioactivity between the holes” value ([1]; Nail B, 1 hour) is reported as “little diffusion of radioactivity between the holes”. The “concentrations” value ([1]; Nail B, 4 mm spacing, 1 hour) was “decrease to background levels between the holes”, the “diffusion of radioactivity between the holes” value ([1]; Nail C, 1 hour, holes did not receive a full application) was “little diffusion of radioactivity between the holes” and the “concentrations” value ([1]; Nail C, 4 mm spacing, 1 hour) was “decrease to background levels between the holes”. For the same compound, the “diffusion at the nail bed level around the holes” value ([1]; overall conclusion) was “diffusion of the radiolabeled drug at the nail bed level around the holes”, the “radioactive signal on the surface of nail plates” value ([1]; overall conclusion) was “marked radioactive signal” and the “diffusion of radioactivity between the holes, 4 mm versus 2 mm spacing” value ([1]; overall conclusion, Nails A to C, hydrochloride) was “little diffusion of radioactivity between the 4 mm spaced holes compared to the 2 mm spaced holes; also recorded: little diffusion of radioactivity between the 4 mm spacing holes compared to the 2 mm spacing holes”. The “concentrations” value ([1]; overall conclusion, 4 mm spaced holes, hydrochloride) was “decreased to background radiation levels between the holes; also recorded: decrease to background levels between the holes”, the “radioactivity in culture medium, mean” value ([2]; Mean sample A) was 575.7 dpm/100 μL and the “radioactivity in culture medium, whole receiver chamber” value (“radioactivity … whole receiver chamber” for short) ([2]; Mean sample A) was 17270 dpm/3 mL. For the same compound, the “radioactivity … whole receiver chamber” value ([2]; Mean sample B) was “BLQ”, the “radioactivity in culture medium, mean” value ([2]; Mean sample B, LOQ 54 dpm) was 46.3 dpm/100 μL and the “radioactivity … whole receiver chamber” value ([2]; Mean sample C) was 1640 dpm/3 mL. The “radioactivity in culture medium, mean” value ([2]; Mean sample C, LOQ 54 dpm) was 54.7 dpm/100 μL, the “radioactivity in culture medium, single counts” value (“radioactivity … single counts” for short) ([2]; Sample A) was 494 dpm/100 μL and 621 dpm/100 μL and 612 dpm/100 μL and the “Applied dose (%) found in culture medium” value ([2]; Sample A) was 1.6%. For the same compound, the “radioactivity … single counts” value ([2]; Sample B) was 48 dpm/100 μL and 49 dpm/100 μL and 42 dpm/100 μL, the “Applied dose (%) found in culture medium” value ([2]; Sample B) was 0% and the “radioactivity … single counts” value ([2]; Sample C) was 49 dpm/100 μL and 52 dpm/100 μL and 63 dpm/100 μL. The “Applied dose (%) found in culture medium” value ([2]; Sample C) was 0.1%.
